{"source": "patent US20210163567A1", "about": "“Method of Delivering a Centrally-Acting Peptide Derivative, and Method of Treating a Neuropsychiatric Disorder” (TOKYO UNIVERSITY OF SCIENCE FOUNDATION, priority 2014, published 2021)", "key": {"[1]": {"system": "learning disorder-induced mouse", "assay": "Y-maze test on learning disorder-induced (LPS) mouse", "assay_type": "in vivo", "conditions": "for Learning ability in Y-maze test: LPS-administered mice, Examples 6 and 7", "protocol": "The learning disorder-alleviating activity of the GLP-1 derivative was evaluated by a Y-maze test on a learning disorder-induced mouse, using the FOS 12 solution of GLP-1 derivative.\nAs the learning disorder-induced mouse, ddY mice (5-7 week old, male, n=5) were administered with lipopolysaccharide (LPS) by 10 μg at three days before the test. Fifteen minutes before the administration of LPS, the mice were administered with GLP-1 derivative by 3 μg with the FOS 12 solution of GLP-1 derivative.\nThe Y-maze test was performed by using a device having three arms of the same size. The number of times that the mouse entered the different arm for consecutive three times was counted, and the result was divided by a number obtained by deducting 2 from the total number of times of entering the arm. The result was multiplied by 100, and used as a spontaneous alternation behavior (%).\n(§1) As a control, mice (5-7 week old, male, n=5 or 7), intranasally administered a solvent without GLP-1 derivative by 4 μL 15 minutes before the administration of LPS, were subjected to the same test as the above. Further, mice that were not administered with LPS (vehicle) were subjected to the same test as the above. The error bar represents mean±SE (n=5 or 7), and the statistical processing was performed by Mann-Whitney test (*P<0.05, **P<0.01).\nAs the learning disorder-induced mouse, ddY mice (5-7 week old, male, n=6) administered with lipopolysaccharide (LPS) by 10 μg three days before the test were used. Fifteen minutes before the administration of LPS, the mice were administered with NmU derivative by 3 μg with the FOS 12 solution of NmU derivative. A Y-maze test was performed in the same manner as Example 6, and a spontaneous alternation behavior (%) was calculated from the measurement results.\nas §1, with “n=6), which were” for “n=5 or 7),”, “NmU” for “GLP-1”, “mice” for “mice that were”, “(n=6),” for “(n=5 or 7),”, “(*P<0.01, **P<0.001).” for “(*P<0.05, **P<0.01).”"}, "[2]": {"system": "ddY mice", "assay": "Tail suspension test on a mouse", "assay_type": "in vivo", "conditions": "Example 4, mouse tail suspension test", "protocol": "The anti-depression activity of the GLP-2 derivative was evaluated by a tail suspension test on a mouse, using the DMSO solution of GLP-2 derivative as prepared in Example 3. The test was performed by the following process.\nOn the day before the test and on the day for the test, ddY mice (5-7 week old, male, n=9) were administered with the GLP-derivative by 3.6 μg, respectively, with the DMSO solution. Then, the mice were suspended by the tail and the immobility time (s) was measured. As a control, mice (5-7 week old, male, n=9) were intranasally administered with a solvent without GLP-2 derivative and subjected to a tail suspension test in the same manner. The error bar represents mean±SE (n=9), and the statistical processing was performed by Mann-Whitney test (*P<0.05)."}, "[3]": {"system": "rats", "assay": "Forced-swim test on rats (anti-depression activity)", "assay_type": "in vivo, rat", "conditions": "intranasal 18 μg/day", "protocol": "The anti-depression activity of the GLP-2 derivative was evaluated by a forced-swim test on rats using the DMSO solution of GLP-2 derivative. The forced-swim test was performed in accordance with the following procedure.\nOne hour before the test, rats (8-10 week old, male, n=6) were transferred to the laboratory for habituation. The rats were intranasally administered with the DMSO solution of GLP-2 derivative by 18 μg/day for two days, 30 minutes before the test. The rats were allowed to swim for 15 minutes, one by one in a transparent plastic cylinder with a diameter of 18 cm and a height of 50 cm filled with water of 25±1° C. to a height of 30 cm. During the swimming, the immobility time (s) was measured. The rats after the test were wiped with a Kimtowel and placed back to a cage. The test was performed for consecutive 2 days, day 1 as a preliminary test and day 2 as a main test. As a control, rats (8-10 week old, male, n=6) were intranasally administered with a solvent without GLP-2 derivative by 10 μL and subjected to a forced-swim test in the same manner. The error bar represents mean±SE (n=6), and the statistical processing was performed by Mann-Whitney test (*P<0.05). […]"}, "[4]": {"system": "ddY mice", "assay": "Forced-swim test on a mouse", "assay_type": "in vivo", "conditions": "Example 3, mouse forced-swim test", "protocol": "The anti-depression activity of the GLP-2 derivative was evaluated by a forced-swim test on a mouse. The test was performed by the following process.\nTwenty-four hours before the test, ddY mice (5-7 week old, male, n=12) were subjected to a preliminary swimming for 15 minutes. The mice were administered GLP-2 derivative by 3.6 μg with the DMSO solution, on the day before the test and on the day for the test, respectively. Then, the test was performed in the same manner as Example 1, and the immobility time (s) was measured. As a control, mice (5-7 week old, male, n=12) were administered with a solution without GLP-2 derivative were subjected to a forced-swim test in the same manner. The error bar represents mean±SE (n=12), and the statistical processing was performed by Mann-Whitney test (*P<0.05)."}, "[5]": {"system": "depression model mouse", "assay": "Forced-swim test on ACTH-induced treatment-resistant depression model mouse", "assay_type": "in vivo", "conditions": "Example 5, treatment-resistive depression model", "protocol": "The anti-depression activity of the GLP-2 derivative was evaluated by a forced-swim test on a depression model […] using the DMSO solution of GLP-2 derivative as prepared in Example 3.\nAs the depression model mouse, ddY mice (5-7 week old, male, n=11) were administered with adrenocorticotropic hormone (ACTH) to induce an enhanced state of hypothalamic-pituitary-adrenal axis (HPA system). The administration of ACTH was performed by 0.45 mg/kg/day for consecutive 14 days.\nThe forced-swim test was performed in the same manner as Example 3 and the immobility time (s) was measured. The mice were intranasally administered with GLP-2 derivative by 3.6 μg as a DMSO solution of GLP-2 derivative, each day for consecutive 6 days until the day for the test. As a control, mice (5-7 week old, male, n=11) were administered with a solvent without GLP-2 derivative by 4 μL each day for consecutive 6 days and subjected to a forced-swim test in the same manner. The error bar represents mean±SE (n=11), and the statistical processing was performed by Mann-Whitney test (*P<0.01)."}}, "note": "Values joined by “and” are separate entries in the source; they are usually repeats but may differ in a detail not shown here. Equal values may be shown once. Ends that are not written are not given here.", "data": [{"substance": "FFFFG-(R)8-(G)2-YKVNEYQGPVAPSGGFFLFRPRN-NH2 (not fully specified (N-terminus)) [NmU derivative, derivative of neuromedin U with PAS (FFFFG), octa-arginine and GG spacer]", "values": [{"measurement": "Alternation behavior (%)", "setting": "[1]; Example 7: LPS 10 μg three days before test, NmU derivative 3 μg 15 minutes before LPS, individual animals n=6", "value": "58.6% and 72.4% and 66.7% and 60.0% and 74.1% and 69.4%"}, {"measurement": "Alternation behavior (%)", "setting": "[1]; Example 7: Vehicle (mice not administered LPS), NmU derivative 3 μg, individual animals n=6", "value": "65.9% and 70.5% and 69.0% and 63.9% and 67.8% and 78.8%"}]}, {"substance": "FFLIPKG-(R)8-(G)2-HAEGTFTSDVSSYLEGQAAKEFIAWLVKGR-NH2 [GLP-1 derivative]", "values": [{"measurement": "Alternation behavior (%)", "setting": "[1]; Example 6: LPS 10 μg three days before test, GLP-1 derivative 3 μg 15 minutes before LPS, individual animals n=5", "value": "64.3% and 66.7% (2×) and 67.9% and 67.4%"}, {"measurement": "Alternation behavior (%)", "setting": "[1]; Example 6: Vehicle (mice not administered LPS), GLP-1 derivative 3 μg, individual animals n=5", "value": "56.4% and 72.2% and 70.3% and 78.6% and 67.6%"}]}, {"substance": "HADGSFSDEMNTILDNLAARDFINWLIQTKITD [GLP-2]", "values": [{"measurement": "Effect of suppressing depression", "setting": "[2]", "value": "an effect of suppressing depression is obtained"}, {"measurement": "Immobility time", "setting": "[3]; Comparative Example 1: GLP-2 alone, individual animals n=6", "value": "46 s and 15 s and 45 s and 41 s and 30 s and 33 s"}, {"measurement": "Immobility time / anti-depression activity versus control group", "setting": "[3]; Mann-Whitney test", "value": "no significant difference in the anti-depression activity"}, {"measurement": "Effect of suppressing depression", "setting": "[4]", "value": "an effect of suppressing depression is obtained"}, {"measurement": "Effect of suppressing depression", "setting": "[5]", "value": "an effect of suppressing depression is obtained"}]}, {"substance": "HAEGTFTSDVSSYLEGQAAKEFIAWLVKGR-NH2 [GLP-1, glucagon-like peptide-1; label printed in b156 where the GLP-1 derivative is probably meant, reference compound]", "values": [{"measurement": "Learning ability in Y-maze test", "setting": "[1]", "value": "learning ability is significantly ameliorated"}]}, {"substance": "YKVNEYQGPVAPSGGFFLFRPRN-NH2 [NmU, neuromedin U; label printed in b156 where the NmU derivative is probably meant, reference compound]", "values": [{"measurement": "Learning ability in Y-maze test", "setting": "[1]", "value": "learning ability is significantly ameliorated"}]}]}
